Data on seven molecules can be found in patent US9187658B2, “Photopolymerizable inkjet ink, ink cartridge, and inkjet recording device” (Ricoh Company, Ltd., priority 2013, dated 2015).

The test system of data set [1] is female mice. Description: Skin sensitization test, local lymph node assay (LLNA, OECD test guideline 429), BrdU intake by ELISA. Particulars: test substance 50.0 w/v % in acetone/olive oil 4:1, 25 μL/auricle once a day for 3 days. On the technique in general: In an ELISA, binding on a coated surface is turned into a signal by an enzyme label.
Method: (§1) According to the skin sensitization test of local lymph node assay (LLNA) specified in OECD test guideline 429, the SI value was measured in the following manner.
(§2) Before treated with the test substances, the positive control or the vehicle control, female mice were acclimated for 8 days including 6-day quarantine. No abnormalities were found in all the mice (used animals) during the quarantine/acclimation period. Based on the body weights measured 2 days before the initiation of sensitization, they were categorized into 2 groups (4 mice/group) by the body weight stratified random sampling method so that the body weight of each individual was within ±20% of the average body weight of all the individuals. Each of the used animals was 8 weeks old to 9 weeks old at the time of the initiation of sensitization. […]
(§3) About 24 hours after the administration of BrdU, the used animals were allowed to undergo euthanasia, and their auricular lymph nodes were sampled. […] Also, the average of the weights of the auricular lymph nodes and the standard error thereof were calculated for each group. […]
(§4) After returning the auricular lymph nodes to room temperature, the auricular lymph nodes were mashed with the gradual addition of physiological saline, and suspended therein. […] The thus-dispensed suspensions were measured for intake of BrdU by the ELISA method. […]
In data set [2] the test system is skin sensitization. The conditions noted are these: cited from earlier work.
The subject of data set [3] is skin sensitization. Particulars: vinyl ethers stated as negative; basis not given; cited from earlier work.
The test system of data set [4] is female mice. The conditions noted are these: mouse, in vivo.
Method: as §1, §2, §3, §4

Read-outs that look alike come from different tables or passages of the source.

Regarding `C=C(C)C(=O)OCCOCCOC(=O)C(=C)C` [Compound 2G, Diethylene glycol dimethacrylate], the “SI value (Stimulation Index)” value in data set [1] was 1.1.

`O=C(c1ccccc1)C1(O)CCCCC1` [Irgacure 184, 1-hydroxycyclohexylphenyl ketone]: the “Skin sensitization evaluated in MSDS” value in data set [2] was “no”.

As to `Cc1cc(C)c(C(=O)P(=O)(C(=O)c2c(C)cc(C)cc2C)c2ccccc2)c(C)c1` [Irgacure 819, Bis(2,4,6-trimethylbenzoyl)-phenylphosphone oxide], the “Skin sensitization evaluated in MSDS” value in data set [2] (MSDS) was “yes”.

`C=COCC` [ethyl vinyl ether]: in data set [3], the Skin sensitization result was “negative for skin sensitization”.

`C=COCCCCO` [hydroxybutyl vinyl ether]: the Skin sensitization entry in data set [3] was “negative for skin sensitization”.

`C=COCCOCCOCCOC=C` [triethylene glycol divinyl ether]: the Skin sensitization entry in data set [3] is on record as “negative for skin sensitization”.

On to “Caprolactone-modified dipentaerythritol hexaacrylate [DPCA60]”, for which the “SI value (Stimulation Index)” value in data set [4] was 1.0.
